{
  "source": "paper doi:10.1101/2023.11.24.568596v1",
  "about": "(biorxiv, 2023)",
  "conditions_in_all_cases": "binder",
  "key": {"FGFR1": {"target": "FGFR1 (Homo sapiens, UniProt P11362)", "sequence (P11362 whole entry)": "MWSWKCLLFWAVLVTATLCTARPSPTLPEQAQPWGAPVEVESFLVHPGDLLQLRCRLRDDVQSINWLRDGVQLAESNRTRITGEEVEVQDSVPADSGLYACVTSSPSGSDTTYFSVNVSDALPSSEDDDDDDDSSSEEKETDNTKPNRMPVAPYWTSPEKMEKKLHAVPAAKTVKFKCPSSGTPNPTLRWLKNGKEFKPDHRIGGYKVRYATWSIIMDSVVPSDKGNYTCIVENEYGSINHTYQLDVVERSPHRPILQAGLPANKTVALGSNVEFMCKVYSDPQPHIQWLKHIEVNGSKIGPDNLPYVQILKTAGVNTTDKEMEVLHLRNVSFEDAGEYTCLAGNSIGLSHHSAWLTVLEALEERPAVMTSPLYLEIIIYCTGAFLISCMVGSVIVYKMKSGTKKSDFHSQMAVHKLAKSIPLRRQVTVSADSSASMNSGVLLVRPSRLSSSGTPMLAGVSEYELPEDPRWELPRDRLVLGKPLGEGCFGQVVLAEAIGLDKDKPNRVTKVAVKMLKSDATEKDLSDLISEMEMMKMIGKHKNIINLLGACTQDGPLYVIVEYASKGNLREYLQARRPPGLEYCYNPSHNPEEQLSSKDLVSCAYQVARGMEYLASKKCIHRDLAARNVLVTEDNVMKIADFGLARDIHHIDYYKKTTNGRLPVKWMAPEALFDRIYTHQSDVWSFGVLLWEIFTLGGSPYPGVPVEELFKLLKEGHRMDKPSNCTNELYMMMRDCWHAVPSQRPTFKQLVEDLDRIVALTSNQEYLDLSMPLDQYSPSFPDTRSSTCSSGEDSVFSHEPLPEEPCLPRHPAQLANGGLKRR"}, "MAP2K7": {"target": "T1, MAP2K7 (Homo sapiens, UniProt O14733)", "T1 sequence (O14733 1-419)": "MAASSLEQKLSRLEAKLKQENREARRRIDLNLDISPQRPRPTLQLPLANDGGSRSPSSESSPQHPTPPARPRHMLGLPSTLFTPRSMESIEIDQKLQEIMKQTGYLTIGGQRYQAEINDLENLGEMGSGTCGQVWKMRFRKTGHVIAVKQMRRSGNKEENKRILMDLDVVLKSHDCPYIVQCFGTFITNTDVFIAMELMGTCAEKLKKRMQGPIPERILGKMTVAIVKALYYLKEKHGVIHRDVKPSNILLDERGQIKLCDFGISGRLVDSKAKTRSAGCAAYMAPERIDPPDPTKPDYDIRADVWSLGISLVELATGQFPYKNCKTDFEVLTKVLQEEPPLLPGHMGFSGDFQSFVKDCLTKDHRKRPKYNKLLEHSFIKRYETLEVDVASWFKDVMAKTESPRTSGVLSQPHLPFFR"}, "DRAK2": {"target": "T2, DRAK2 (Homo sapiens, UniProt O94768)", "T2 sequence (O94768 1-372)": "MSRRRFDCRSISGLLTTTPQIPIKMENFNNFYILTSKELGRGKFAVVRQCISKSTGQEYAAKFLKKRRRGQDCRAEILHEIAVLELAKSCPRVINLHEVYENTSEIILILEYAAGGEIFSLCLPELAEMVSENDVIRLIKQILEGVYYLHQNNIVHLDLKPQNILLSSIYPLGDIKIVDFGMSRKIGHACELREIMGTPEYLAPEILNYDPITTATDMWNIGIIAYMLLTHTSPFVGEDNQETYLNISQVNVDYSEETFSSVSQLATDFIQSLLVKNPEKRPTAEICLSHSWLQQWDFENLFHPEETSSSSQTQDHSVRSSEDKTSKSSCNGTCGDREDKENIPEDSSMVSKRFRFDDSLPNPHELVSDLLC"}, "AKT3": {"target": "AKT3 (Homo sapiens, UniProt Q9Y243)", "sequence (Q9Y243 whole entry)": "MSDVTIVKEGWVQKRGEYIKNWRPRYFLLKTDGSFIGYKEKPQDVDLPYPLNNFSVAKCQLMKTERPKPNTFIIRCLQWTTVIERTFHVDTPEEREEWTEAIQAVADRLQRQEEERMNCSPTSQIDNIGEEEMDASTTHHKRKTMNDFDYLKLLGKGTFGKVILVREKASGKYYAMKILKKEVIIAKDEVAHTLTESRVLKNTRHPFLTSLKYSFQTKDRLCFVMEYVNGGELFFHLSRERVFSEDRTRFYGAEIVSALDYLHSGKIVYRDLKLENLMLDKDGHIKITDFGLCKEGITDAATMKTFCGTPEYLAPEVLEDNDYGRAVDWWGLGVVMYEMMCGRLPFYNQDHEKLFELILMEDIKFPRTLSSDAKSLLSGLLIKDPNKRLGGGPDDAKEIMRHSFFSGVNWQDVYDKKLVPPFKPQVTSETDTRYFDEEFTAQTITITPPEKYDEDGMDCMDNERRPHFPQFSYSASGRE"}, "Haspin": {"target": "T3, Haspin (Homo sapiens, UniProt Q8TF76)", "T3 sequence (Q8TF76 1-798)": "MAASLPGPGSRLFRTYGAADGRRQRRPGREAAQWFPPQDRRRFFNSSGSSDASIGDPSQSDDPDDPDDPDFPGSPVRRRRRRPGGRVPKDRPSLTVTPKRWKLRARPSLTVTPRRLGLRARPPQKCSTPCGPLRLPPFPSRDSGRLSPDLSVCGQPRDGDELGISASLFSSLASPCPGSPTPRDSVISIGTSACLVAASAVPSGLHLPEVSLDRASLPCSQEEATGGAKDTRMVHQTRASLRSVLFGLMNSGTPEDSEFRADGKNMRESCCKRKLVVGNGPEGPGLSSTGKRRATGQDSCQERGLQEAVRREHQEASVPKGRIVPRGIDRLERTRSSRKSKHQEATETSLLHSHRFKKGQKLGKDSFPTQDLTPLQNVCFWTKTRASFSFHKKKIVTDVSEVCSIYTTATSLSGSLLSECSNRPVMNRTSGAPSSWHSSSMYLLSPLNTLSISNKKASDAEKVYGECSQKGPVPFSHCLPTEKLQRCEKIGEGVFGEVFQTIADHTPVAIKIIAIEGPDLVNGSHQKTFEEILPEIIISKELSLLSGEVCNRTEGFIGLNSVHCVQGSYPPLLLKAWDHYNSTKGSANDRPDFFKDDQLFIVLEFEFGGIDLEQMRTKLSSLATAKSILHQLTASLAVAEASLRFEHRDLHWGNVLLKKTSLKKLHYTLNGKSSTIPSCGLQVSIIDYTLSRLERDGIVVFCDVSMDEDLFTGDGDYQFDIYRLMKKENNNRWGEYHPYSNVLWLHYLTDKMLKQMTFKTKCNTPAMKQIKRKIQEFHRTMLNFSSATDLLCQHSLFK"}, "CASK": {"target": "T4, CASK (Homo sapiens, UniProt O14936)", "T4 sequence (O14936 1-926)": "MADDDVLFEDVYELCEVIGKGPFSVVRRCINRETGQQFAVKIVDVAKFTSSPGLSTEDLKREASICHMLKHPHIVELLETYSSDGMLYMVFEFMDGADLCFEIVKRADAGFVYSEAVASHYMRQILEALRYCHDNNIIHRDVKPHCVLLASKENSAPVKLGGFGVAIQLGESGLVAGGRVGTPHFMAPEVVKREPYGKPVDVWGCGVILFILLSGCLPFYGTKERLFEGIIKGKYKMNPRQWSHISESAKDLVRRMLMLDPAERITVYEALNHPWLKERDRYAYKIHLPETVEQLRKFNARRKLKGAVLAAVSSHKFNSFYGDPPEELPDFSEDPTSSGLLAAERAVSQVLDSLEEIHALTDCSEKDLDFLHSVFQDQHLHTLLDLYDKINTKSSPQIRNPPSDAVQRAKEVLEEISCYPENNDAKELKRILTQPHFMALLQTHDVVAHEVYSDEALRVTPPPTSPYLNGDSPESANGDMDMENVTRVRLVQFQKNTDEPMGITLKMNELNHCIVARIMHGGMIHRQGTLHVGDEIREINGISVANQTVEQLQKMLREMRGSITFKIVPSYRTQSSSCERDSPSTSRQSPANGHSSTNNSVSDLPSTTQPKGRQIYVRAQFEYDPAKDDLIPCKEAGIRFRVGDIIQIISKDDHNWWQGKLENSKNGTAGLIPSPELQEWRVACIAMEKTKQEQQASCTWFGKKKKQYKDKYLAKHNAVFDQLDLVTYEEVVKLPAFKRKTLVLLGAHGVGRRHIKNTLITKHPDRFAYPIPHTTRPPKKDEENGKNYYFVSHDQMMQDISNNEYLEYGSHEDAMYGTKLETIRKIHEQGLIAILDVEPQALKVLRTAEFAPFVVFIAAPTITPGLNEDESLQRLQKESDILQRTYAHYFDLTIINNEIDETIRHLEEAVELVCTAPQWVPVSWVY"}},
  "data": [
    {"smiles": "Cc1cccc(-c2ccc(-c3cc4cnc(NCCCN5CCCC5=O)nc4n(CCCCN)c3=O)c(Cl)c2)n1", "note": "[compound 27, MR30]", "values": [
      {"measurement": "ΔTm MR30 (27)", "setting": "FGFR1", "result": 0.2, "unit": "°C"},
      {"measurement": "ΔTm MR30 (27)", "setting": "MAP2K7", "result": 2.6, "unit": "°C"},
      {"measurement": "ΔTm MR30 (27)", "setting": "DRAK2", "result": 0.8, "unit": "°C"},
      {"measurement": "ΔTm MR30 (27)", "setting": "AKT3", "result": 0.9, "unit": "°C"},
      {"measurement": "ΔTm MR30 (27)", "setting": "Haspin", "result": -0.7, "unit": "°C"},
      {"measurement": "ΔTm MR30 (27)", "setting": "CASK", "result": -0.3, "unit": "°C"}
    ]},
    {"smiles": "Cc1cccc(-c2ccc(-c3cc4cnc(Nc5cc(C(F)(F)F)ccc5C)nc4n(CCCCN)c3=O)c(Cl)c2)n1", "note": "[compound 28, 8-(4-Aminobutyl)-6-(2-chloro-4-(6-methylpyridin-2-yl)phenyl)-2-((2-methyl-5-(trifluoromethyl)phenyl)amino)pyrido[2,3-d]pyrimidin-7(8H)-one]", "values": [
      {"measurement": "ΔTm 28", "setting": "FGFR1", "result": 1.1, "unit": "°C"},
      {"measurement": "ΔTm 28", "setting": "MAP2K7", "result": 2.9, "unit": "°C"},
      {"measurement": "ΔTm 28", "setting": "DRAK2", "result": 8.4, "unit": "°C"},
      {"measurement": "ΔTm 28", "setting": "AKT3", "result": 0.3, "unit": "°C"},
      {"measurement": "ΔTm 28", "setting": "Haspin", "result": -1.3, "unit": "°C"},
      {"measurement": "ΔTm 28", "setting": "CASK", "result": 0.0, "unit": "°C"}
    ]},
    {"smiles": "Cc1cccc(-c2ccc(-c3cc4cnc(NCCCN5CCNCC5)nc4n(CCCCN)c3=O)c(Cl)c2)n1", "note": "[compound 29, 8-(4-Aminobutyl)-6-(2-chloro-4-(6-methylpyridin-2-yl)phenyl)-2-((3-(piperazin-1-yl)propyl)amino)pyrido[2,3-d]pyrimidin-7(8H)-one]", "values": [
      {"measurement": "ΔTm 29", "setting": "FGFR1", "result": 0.7, "unit": "°C"},
      {"measurement": "ΔTm 29", "setting": "MAP2K7", "result": 1.4, "unit": "°C"},
      {"measurement": "ΔTm 29", "setting": "DRAK2", "result": 4.6, "unit": "°C"},
      {"measurement": "ΔTm 29", "setting": "AKT3", "result": 0.8, "unit": "°C"},
      {"measurement": "ΔTm 29", "setting": "Haspin", "result": -1.2, "unit": "°C"},
      {"measurement": "ΔTm 29", "setting": "CASK", "result": -0.5, "unit": "°C"}
    ]},
    {"smiles": "Cc1cccc(-c2ccc(-c3cc4cnc(Nc5ccc(CCCO)cc5)nc4n(CCCCN)c3=O)c(Cl)c2)n1", "note": "[compound 30, 8-(4-Aminobutyl)-6-(2-chloro-4-(6-methylpyridin-2-yl)phenyl)-2-((4-(3-hydroxypropyl)phenyl)amino)pyrido[2,3-d]pyrimidin-7(8H)-one]", "values": [
      {"measurement": "ΔTm 30", "setting": "FGFR1", "result": 1.0, "unit": "°C"},
      {"measurement": "ΔTm 30", "setting": "MAP2K7", "result": 6.2, "unit": "°C"},
      {"measurement": "ΔTm 30", "setting": "DRAK2", "result": 12.3, "unit": "°C"},
      {"measurement": "ΔTm 30", "setting": "AKT3", "result": 4.3, "unit": "°C"},
      {"measurement": "ΔTm 30", "setting": "Haspin", "result": 0.4, "unit": "°C"},
      {"measurement": "ΔTm 30", "setting": "CASK", "result": -0.5, "unit": "°C"}
    ]},
    {"smiles": "Cc1cccc(-c2ccc(-c3cc4cnc(Nc5ccc(O)cc5)nc4n(CCCCN)c3=O)c(Cl)c2)n1", "note": "[compound 31, 8-(4-Aminobutyl)-6-(2-chloro-4-(6-methylpyridin-2-yl)phenyl)-2-((4-hydroxyphenyl)amino) pyrido[2,3-d]pyrimidin-7(8H)-one]", "values": [
      {"measurement": "ΔTm 31", "setting": "FGFR1", "result": 1.5, "unit": "°C"},
      {"measurement": "ΔTm 31", "setting": "MAP2K7", "result": 8.9, "unit": "°C"},
      {"measurement": "ΔTm 31", "setting": "DRAK2", "result": 11.7, "unit": "°C"},
      {"measurement": "ΔTm 31", "setting": "AKT3", "result": 4.2, "unit": "°C"},
      {"measurement": "ΔTm 31", "setting": "Haspin", "result": -0.4, "unit": "°C"},
      {"measurement": "ΔTm 31", "setting": "CASK", "result": -0.2, "unit": "°C"}
    ]},
    {"smiles": "Cc1cccc(-c2ccc(-c3cc4cnc(Nc5ccc(C)c(O)c5)nc4n(CCCCN)c3=O)c(Cl)c2)n1", "note": "[compound 32, 8-(4-Aminobutyl)-6-(2-chloro-4-(6-methylpyridin-2-yl)phenyl)-2-((3-hydroxy-4-methylphenyl)amino)pyrido[2,3-d]pyrimidin-7(8H)-one]", "values": [
      {"measurement": "ΔTm 32", "setting": "FGFR1", "result": 2.0, "unit": "°C"},
      {"measurement": "ΔTm 32", "setting": "MAP2K7", "result": 7.3, "unit": "°C"},
      {"measurement": "ΔTm 32", "setting": "DRAK2", "result": 12.2, "unit": "°C"},
      {"measurement": "ΔTm 32", "setting": "AKT3", "result": 3.6, "unit": "°C"},
      {"measurement": "ΔTm 32", "setting": "Haspin", "result": -1.5, "unit": "°C"},
      {"measurement": "ΔTm 32", "setting": "CASK", "result": 0.0, "unit": "°C"}
    ]}
  ]
}
